According to publication PMC7795662, “Alkaloids with Anti-Onchocercal Activity from Voacanga africana Stapf (Apocynaceae): Identification and Molecular Modeling” (Molecules, 2020):
Read-outs that look alike come from different tables or passages of the source.

What was measured:
[1] = system: Onchocerca ochengi microfilariae; test: O. ochengi microfilariae (Mf) motility assay, primary and secondary screens; type: cell-based; details: for inhibition at 30 µM: 24 h, read-out: % Mf Motility Reduction after 24 h; for effect on motility of microfilariae (in words): dose-dependent manner; for IC50: read-out: IC50 Mf; for SI Mf: selectivity index = IC50 on LLC-MK2 cells (CC50) / IC50 on parasites
Procedure: Briefly, Mf were prepared using the method described by Cho-Ngwa et al., with slight modifications. A few skin snips were obtained from different locations and incubated in aliquots of culture medium for 15 min, after which the emergent Mf were qualified and quantified using an inverted microscope and standard atlases. The leftover pieces of skin were shaved, rinsed, sterilized with 70% ethanol and sliced into thin slivers. The slivers were incubated in CCM for 2 h, and the emergent highly motile O. ochengi Mf were concentrated by centrifugation. The Mf were transferred to 96-well micro titer plates (15 Mf/100 μL/well) containing a fully confluent LLC-MK2 cell layer in 100 μL of CCM. This was monitored for viability and sterility for 24 h before addition of test and control compounds.
The biological assays were conducted in duplicate in the 96-well microtiter plates. The Mf were incubated with the drug for 120 h in a total of 200 μL of medium. Mf viability was assessed by microscopy once every day and motility inhibition scores were recorded. […] Motility inhibition correlates to drug activity. The positive control drug was amorcazine at 30 μM, and negative control was the diluent (DMSO).
Compounds showing 100% activity in the primary screens were re-tested as described under primary screens to determine the IC50 values. All assays were repeated at least once. The selectivity index (SI) of each extract was calculated as the ratio of the IC50 of the extract on the mammalian cell (termed CC50) to the IC50 on parasites.

[2] = system: Onchocerca ochengi adult male worms; test: O. ochengi adult male worm motility assay, primary and secondary screens; type: cell-based; details: for effect on motility of adult male worms (in words): dose-dependent manner; for IC50: read-out: IC50 Adult Male Worm; for SI Adult Male Worm: selectivity index = IC50 on LLC-MK2 cells (CC50) / IC50 on parasites
Procedure: (§1) The isolation of O. ochengi adult worms was performed as described previously by Cho-Ngwa et al.. Briefly, fresh pieces of umbilical cattle skin with palpable nodules bought from butchery in Douala, Cameroon were washed, drained and sterilized with 70% ethanol. The worms were carefully scraped out of the nodules as single masses and temporarily submerged in 1 mL complete culture medium, CCM [RPMI-1640 (Sigma-Aldrich, St. Louis, MO, USA) supplemented with 25 mM HEPES, 2 g/L sodium bicarbonate, 2 mM L-glutamine, 5% newborn calf serum (SIGMA, St. Louis, MO, USA), 150 units/mL penicillin, 150 µg/mL streptomycin and 0.5 µg/mL amphotericin B (SIGMA, St. Louis, MO, USA), pH 7.4)] using 24-well plates. The adult worms were incubated in the culture medium overnight in a CO2 incubator, during which period the male worms migrated out of the nodular masses. Only wells containing viable worms received treatment with test compounds. Damaged worms and worms from putrefied nodules were discarded. The viability of worms retained for the assay was ascertained by visual and microscopic examination of adult male worm motility using an inverted microscope.
(§2) The compounds were tested on […] at a single concentration of 30 μM, in duplicate wells. […] The female worms were removed and incubated in 500 μL of 0.5 μg/mL MTT for the last 30 min of incubation. Inhibition of formazan formation from MTT directly correlates with worm death. The worms were blotted on absorbent paper and observed visually for blue coloration against a white background. […] Auranofin at 10 μM, which had previously shown activity against O. ochengi adult worms and Mf, was used as a positive control, while negative control wells received the diluent, 2% DMSO only, previously shown to have no effect on parasite viability. The solvent DMSO (2%) was used as a negative control. […] Furthermore, the toxicity of DMSO decreases with dilution.
Adult male worm motility was evaluated with the aid of an inverted microscope.
(§3) The pure compounds with 100% activity at primary screens were re-tested as described under primary screens, in order to determine the IC50 values. The IC50 assays were performed in triplicate and each experiment repeated for confirmation. The means of all activities at a concentration were calculated and used in the statistical analyses. GraphPadPrism version 6.0 (GraphPad Software, San Diego, CA, USA) was used to generate dose response curves from which the IC50 values were obtained.

[3] = system: Onchocerca ochengi adult female worms; test: O. ochengi adult female worm viability, MTT/formazan assay; type: cell-based; details: for killing at 30 µM: Onchocerca ochengi, 120 h, read-out: % Adult Female Worm Death after 120 h; for activity on adult female worms (in words): biochemical assessment at 30 μM; for IC100 Adult Female Worm: secondary screen
Procedure: as §1, §2, §3

[4] = system: Onchocerca ochengi adult male worms; test: O. ochengi adult male worm motility assay, primary and secondary screens; type: cell-based; details: for inhibition at 30 µM: Onchocerca ochengi, 24 h, read-out: % Adult Male Worm Motility Reduction after 24 h
[5] = system: Monkey kidney epithelial cells (LLC-MK2); test: Cytotoxicity on monkey kidney epithelial cells, microscopic; type: cell-based; details: read-out: IC50 Monkey Kidney Cells (LLC-MK2)
Procedure: Monkey kidney epithelial cells (LLC-MK2) (ATCC, Manassas, VA, USA) were cultured at 37 °C in humidified air with 5% CO2 in a Hera Cell-150 incubator (Thermo Electron, Karlsruhe, Germany) until the cell layer was almost confluent. The cell suspension was dispensed into 96-well micro titer plates (200 µL/well) and kept in the incubator for 3–5 days for cells to grow and become fully confluent. These cells served as feeder layers for the Mf assays and were also used for cytotoxicity studies.
Cytotoxicity of the pure compounds with anti-onchocercal activities was assessed on LLC-MK2 cells, microscopically, on day 5 of the Mf assay. Living cells were flattened out and attached to the culture plate, while dead cells were rounded up and detached from the plate. The IC50 values for these cells were estimated from the morphological deformation data.

Onchocerca ochengi = system: Onchocerca ochengi; parameters: method as in earlier work; details: from stem bark of V. africana; cited from earlier work
[6] = Onchocerca ochengi, primary screen, 30 μM
[7] = Onchocerca ochengi, secondary screen, motility
[8] = Primates, LLC-MK2, 120 h, cytotoxicity, day 5, estimated from morphological deformation

Molecule: CC[C@H]1C[C@@H]2C[C@H]3c4[nH]c5cc(OC)ccc5c4CC[N@@](C2)[C@@H]13 [Compound 5, tabernanthine]
- inhibition at 30 µM ([1]; Onchocerca ochengi): 0%
- effect on motility of microfilariae (in words) [1]: almost inactive
- effect on motility of adult male worms (in words) [2]: almost inactive
- killing at 30 µM [3]: 0%
- activity on adult female worms (in words) [3]: almost inactive
- inhibition at 30 µM [4]: 0%

Molecule: C/C=C1/CN(C)C2Cc3c([nH]c4ccccc34)[C@@H](c3cc4[nH]c5c(c4cc3OC)CCN3CC4CC([C@H](C)O)C3[C@@]5(C(=O)OC)C4)CC1C2C(=O)OC (stereo partly drawn) [Compound 8, voacorine]
- inhibition at 30 µM ([1]; Onchocerca ochengi): 100%
- IC50 ([1]; Onchocerca ochengi): 2.49 µM
- effect on motility of microfilariae (in words) [1]: inhibit the motility
- IC100 Mf ([1]; secondary screen): 4.98 µM
- SI Mf [1]: 12.04
- IC50 ([2]; Onchocerca ochengi): 3.45 µM
- effect on motility of adult male worms (in words) [2]: inhibit the motility
- IC100 Adult Male Worm ([2]; secondary screen): 6.90 µM
- SI Adult Male Worm [2]: 8.69
- killing at 30 µM [3]: 50%
- activity on adult female worms (in words) [3]: moderately active
- IC100 Adult Female Worm [3]: >30 µM
- IC50 ([5]; Primates, LLC-MK2, 120 h): ≥ 30 µM
- inhibition at 30 µM [4]: 100%

Molecule: CC[C@H]1C[C@@H]2CN3CCc4c([nH]c5ccccc45)[C@](C(=O)OC)(C2)[C@H]13 [Compound 4, coronaridine]
- inhibition at 30 µM [1, 6]: 100%
- IC50 [1, 7]: 4.21 µM
- effect on motility of microfilariae (in words) [1]: inhibit the motility
- IC100 Mf ([1]; secondary screen): 8.42 µM
- SI Mf [1]: 7.13
- IC50 ([2]; Onchocerca ochengi): 8.68 µM
- effect on motility of adult male worms (in words) [2]: inhibit the motility
- IC100 Adult Male Worm ([2]; secondary screen): 17.36 µM
- SI Adult Male Worm [2]: 3.45
- killing at 30 µM [3]: 50%
- activity on adult female worms (in words) [3]: moderately active
- IC100 Adult Female Worm [3]: >30 µM
- IC50 [5, 8]: ≥ 30 µM
- inhibition at 30 µM [4]: 100%

Molecule: voacamine [Compound 7]
- effect on motility of microfilariae (in words) [1]: inhibit the motility
- % Mf Motility Reduction after 24 h ([1]; primary screen, 30 μM): 100%
- IC100 Mf ([1]; secondary screen): 10 µM
- IC50 ([1]; secondary screen, motility): 2.49 µM
- effect on motility of adult male worms (in words) [2]: inhibit the motility
- IC100 Adult Male Worm ([2]; secondary screen): 10 µM
- IC50 ([2]; secondary screen, motility): 3.45 µM
- activity on adult female worms (in words) [3]: moderately active
- % Adult Female Worm Death after 120 h ([3]; primary screen, 30 μM, corresponds to % inhibition of formazan formation): 65%
- IC100 Adult Female Worm [3]: >30 µM
- IC50 ([5]; cytotoxicity, day 5, estimated from morphological deformation): ≥ 30 µM
- % Adult Male Worm Motility Reduction after 24 h ([4]; primary screen, 30 μM): 100%
- activity against Onchocerca ochengi (in words) (Onchocerca ochengi): showing activity

Molecule: C/C=C1\CN(C)C2Cc3c([nH]c4ccccc34)[C@@H](c3cc4[nH]c5c(c4cc3OC)CCN3CC4C[C@H](CC)C3[C@@]5(C(=O)OC)C4)CC1C2C(=O)OC (stereo partly drawn) [Compound 1, voacamine A]
- inhibition at 30 µM ([1]; Onchocerca ochengi): 100%
- IC50 [1, 7]: 3.69 µM
- effect on motility of microfilariae (in words) [1]: inhibit the motility
- IC100 Mf ([1]; secondary screen): 7.38 µM
- SI Mf [1]: 8.13
- IC50 ([2]; Onchocerca ochengi): 4.45 µM
- effect on motility of adult male worms (in words) [2]: inhibit the motility
- IC100 Adult Male Worm ([2]; secondary screen): 8.90 µM
- SI Adult Male Worm [2]: 6.74
- killing at 30 µM [3]: 65%
- activity on adult female worms (in words) [3]: moderately active
- IC100 Adult Female Worm [3]: >30 µM
- IC50 [5, 8]: ≥ 30 µM
- inhibition at 30 µM [4]: 100%

Molecule: COC(=O)[C@@]12C[C@@H]3C[C@H]([C@H](C)O)[C@@H]1N(CCc1c2[nH]c2ccc(OC)cc12)C3 [Compound 3, voacristine]
- inhibition at 30 µM [1, 6]: 100%
- IC50 [1, 7]: 4.34 µM
- effect on motility of microfilariae (in words) [1]: inhibit the motility
- IC100 Mf ([1]; secondary screen): 8.68 µM
- SI Mf [1]: 6.91
- IC50 ([2]; Onchocerca ochengi): 8.07 µM
- effect on motility of adult male worms (in words) [2]: inhibit the motility
- IC100 Adult Male Worm ([2]; secondary screen): 16.14 µM
- SI Adult Male Worm [2]: 3.71
- killing at 30 µM [3]: 50%
- activity on adult female worms (in words) [3]: moderately active
- IC100 Adult Female Worm [3]: >30 µM
- IC50 [5, 8]: ≥ 30 µM
- inhibition at 30 µM [4]: 100%
